Measured values published in article PMC11161644, “An effective and rapidly degradable disinfectant from disinfection byproducts” (Nature Communications, 2024).
Where “and” joins values, the source holds several entries; their conditions need not be identical. Equal entries are not always repeated.

Assays:
[1] = UPLC/ESI-tqMS time profile of 2,6-DCQ and its degradation products in simulated seawater (pH 8.2, darkness); OH-DCQ formation; conditions: for Concentration: 2,6-DCQ degradation / OH-DCQ formation; for Peak area: 2,6-DCQ degradation
Description: A Waters UPLC system coupled with ESI-tqMS was used to characterize the degradation products of 2,6-DCQ. The UPLC separation was performed using an HSS T3 column (100 × 2.1 mm, 1.8 μm particle size, Waters) with a column temperature of 35 °C. A gradient eluent of methanol–water was applied at a flow rate of 0.4 mL min^−1. The gradient program was set as follows: methanol/water (v/v) ratio changed linearly from 5/95 to 90/10 in the first 8 min and then returned to 5/95 during 8.0‒8.1 min, which was held for 2.9 min for re-equilibration. The ESI-tqMS was set as follows: ESI negative mode, capillary voltage 2.8 kV, cone voltage 10–50 V (depending on analytes), cone gas flow 50 L h^−1, source temperature 120 °C, desolvation temperature 400 °C, desolvation gas flow 800 L h^−1, collision energy 15–50 eV (depending on analytes), collision gas (argon) flow 0.25 mL min^−1, and mass resolution 15 (1-unit resolution).
The degradation of 2,6-DCQ in seawater was simulated by adding 10 mg L^−1 2,6-DCQ to 50 mL ultrapure water, which was adjusted to pH 8.2 with 5 mM sodium carbonate (to simulate the alkalinity in seawater and also to be compatible with the subsequent UPLC/ESI-tqMS analysis). The sample was kept in darkness for 0–24 h, during which the pH of the sample was maintained at 8.1 ± 0.1. At a designated reaction time, 7.5 μL of the sample was injected into the UPLC system. For a nonhalogenated degradation product, the selected ion recording (SIR) mode with a dwell time of 0.05 s was adopted to obtain the retention time. For halogenated degradation products, the multiple reaction monitoring mode with a dwell time of 0.05 s was used to obtain the retention time and the isotopic abundance ratio. To investigate the time-dependent profile of 2,6-DCQ and its degradation products, the peak area of each compound was determined using the SIR mode in the UPLC/ESI-tqMS analysis.
The second aliquot was subjected to analysis of total organic halogen to quantify the collected OH-DCQ. The determination of total organic halogen was based on Standard Method 5320B[52], with modifications of using off-line ion chromatography for halide detection. Briefly, the aliquot was dissolved in 100 mL ultrapure water and acidified to pH 2 with concentrated nitric acid[52] prior to adsorption onto pre-packed activated carbon columns (Mitsubishi). A three-channel adsorption module (TXA03C, Mitsubishi Chemical Analytech) was used for adsorption. An AQF-100 automatic quick furnace (Mitsubishi Chemical Analytech) was used for pyrolysis. During the pyrolysis process, the chlorine atoms in OH-DCQ were converted to chloride. The chloride ion concentration was determined using an ICS-3000 ion chromatography system (Dionex). 2,6-DCQ was used as a standard compound for measuring total organic halogen to determine the recovery of the analysis. The total organic halogen analysis was conducted in duplicate.

[2] = test system: P. dumerilii embryos; experiment: Developmental toxicity (EC50) of OH-DCQ and 2,6-DCQ to P. dumerilii embryos; type: in vivo, Platynereis dumerilii
Description: The third aliquot was subjected to the developmental toxicity assay with P. dumerilii embryos. The aliquot was dissolved in 10 mL of seawater and adjusted to pH 8.2. The embryos at 12-h postfertilization were exposed to different levels of OH-DCQ for 12 h. By 24-h postfertilization, normally and abnormally developed embryos were counted using an inverted stereomicroscope. Based on the percentage of normally developed embryos, an exposure−response curve was generated. The median effective concentration (EC50) was determined using SigmaPlot 12 software. The developmental toxicity of 2,6-DCQ was also evaluated for comparison. The toxicity bioassay was conducted in duplicate.

Q: What does the source list for O=C1C=C(Cl)C(=O)C(Cl)=C1O [OH-DCQ, 3-hydroxyl-2,6-dichloro-1,4-benzoquinone]?
A: Degradation time at which concentration reached its maximum ([1]; 10 mg L−1, pH 8.2): 5.5 h; Concentration ([1]; degradation time 0 h): 388.2 ng/mL; Concentration ([1]; degradation time 0.25 h): 1568 ng/mL; Concentration ([1]; degradation time 0.5 h): 2136 ng/mL; Concentration ([1]; degradation time 0.75 h): 2523 ng/mL; Concentration ([1]; degradation time 1 h): 2564 ng/mL; Concentration ([1]; degradation time 1.25 h): 2851 ng/mL; Concentration ([1]; degradation time 1.5 h): 2913 ng/mL; Concentration ([1]; degradation time 1.75 h): 3134 ng/mL; Concentration ([1]; degradation time 2 h): 3157 ng/mL; Concentration ([1]; degradation time 2.25 h): 3402 ng/mL; Concentration ([1]; degradation time 2.5 h): 3558 ng/mL; Concentration ([1]; degradation time 2.75 h): 3742 ng/mL; Concentration ([1]; degradation time 3 h): 3837 ng/mL; Concentration ([1]; degradation time 3.25 h): 4027 ng/mL; Concentration ([1]; degradation time 3.5 h): 4055 ng/mL; Concentration ([1]; degradation time 3.75 h): 4030 ng/mL; Concentration ([1]; degradation time 4 h): 4244 ng/mL; Concentration ([1]; degradation time 4.5 h): 4217 ng/mL; Concentration ([1]; degradation time 5 h): 4099.6 ng/mL; Concentration ([1]; degradation time 5.5 h): 4364 ng/mL; Concentration ([1]; degradation time 6 h): 4268 ng/mL; Concentration ([1]; degradation time 8 h): 4192.4 ng/mL; Concentration ([1]; degradation time 10 h): 3830 ng/mL; Concentration ([1]; degradation time 12 h): 3886 ng/mL; Concentration ([1]; degradation time 14 h): 3910 ng/mL; Concentration ([1]; degradation time 16 h): 3929.8 ng/mL; Concentration ([1]; degradation time 18 h): 3711 ng/mL; Concentration ([1]; degradation time 20 h): 3724 ng/mL; Concentration ([1]; degradation time 24 h): 3646 ng/mL; Peak area ([1]; pH 8.2, darkness, 0 h): 2432; Peak area ([1]; pH 8.2, darkness, 0.25 h): 9916; Peak area ([1]; pH 8.2, darkness, 0.5 h): 13509; Peak area ([1]; pH 8.2, darkness, 0.75 h): 15961; Peak area ([1]; pH 8.2, darkness, 1 h): 16217; Peak area ([1]; pH 8.2, darkness, 1.25 h): 18034; Peak area ([1]; pH 8.2, darkness, 1.5 h): 18424; Peak area ([1]; pH 8.2, darkness, 1.75 h): 19823; Peak area ([1]; pH 8.2, darkness, 2 h): 19969; Peak area ([1]; pH 8.2, darkness, 2.25 h): 21520; Peak area ([1]; pH 8.2, darkness, 2.5 h): 22505; Peak area ([1]; pH 8.2, darkness, 2.75 h): 23670; Peak area ([1]; pH 8.2, darkness, 3 h): 24273; Peak area ([1]; pH 8.2, darkness, 3.25 h): 25472; Peak area ([1]; pH 8.2, darkness, 3.5 h): 25650; Peak area ([1]; pH 8.2, darkness, 3.75 h): 25488; Peak area ([1]; pH 8.2, darkness, 4 h): 26847; Peak area ([1]; pH 8.2, darkness, 4.5 h): 26676; Peak area ([1]; pH 8.2, darkness, 5 h): 25931; Peak area ([1]; pH 8.2, darkness, 5.5 h): 27605; Peak area ([1]; pH 8.2, darkness, 6 h): 26995; Peak area ([1]; pH 8.2, darkness, 8 h): 26518; Peak area ([1]; pH 8.2, darkness, 10 h): 24223; Peak area ([1]; pH 8.2, darkness, 12 h): 24578; Peak area ([1]; pH 8.2, darkness, 14 h): 24730; Peak area ([1]; pH 8.2, darkness, 16 h): 24857; Peak area ([1]; pH 8.2, darkness, 18 h): 23474; Peak area ([1]; pH 8.2, darkness, 20 h): 23553; Peak area ([1]; pH 8.2, darkness, 24 h): 23064; Maximum concentration as share of initial molar concentration of 2,6-DCQ ([1]; pH 8.2, darkness): 41%; Normal development ([2]; OH-DCQ concentration 15 mg L-1): 92.9293% and 86.7257%; Normal development ([2]; OH-DCQ concentration 25 mg L-1): 83.1776% and 81.579%; Normal development ([2]; OH-DCQ concentration 35 mg L-1): 84.1584% and 85.7144%; Normal development ([2]; OH-DCQ concentration 40 mg L-1): 83.0189% and 85.5855%; Normal development ([2]; OH-DCQ concentration 48 mg L-1): 79.8164% and 77.4194%; Normal development ([2]; OH-DCQ concentration 65 mg L-1): 67.0813% and 64.9575%; Normal development ([2]; OH-DCQ concentration 85 mg L-1): 48.8761% and 42.0329%
